Measurements published in patent US20170143712A1, “Methods of Treating Cancers, Immune and Autoimmune Diseases, and Inflammatory Diseases Based on BTK Occupancy and BTK Resynthesis Rate” (Acerta Pharma B.V., priority 2014, published 2017).

What was measured:
Assay type in all cases: in vivo
[1] = Plasma pharmacokinetics in CLL patients; conditions: human, oral administration
From the text: In this indication, the rapid resynthesis of BTK in the tumor cells in the CLL cell compartment is observed as a steeper rate of decline in the percentage of BTK sites occupied by Formula (II), compared with what has been observed in normal peripheral blood cells of healthy volunteers (compare linear slope estimates of FIG. 25 with FIG. 34).

[2] = Rat pharmacokinetics, oral gavage vs dietary administration in chow
Protocol: To evaluate the effects of continuous low dose administration versus oral gavage administration of Formula (II), six male rats per group were treated with oral gavage administration of vehicle or Formula (II) at a dose of 30 mg/kg/day for 14 days. Six male rats per group were treated with dietary Formula (II) in chow at concentrations of 100 and 500 ppm; a control group (no vehicle, no chow) was also included in the study. All animals were evaluated for pharmacokinetics on Day 14, during the night cycle to accommodate the dietary groups. The spleens were collected at necroscopy and splenocytes were harvested and cryopreserved for BTK target occupancy analysis. The presence of inactivated BTK in normal splenocytes was measured using a BTK active-site specific probe in an ELISA assay. Plasma concentrations of Formula (II) were measured using liquid chromatography/mass spectroscopy; pharmacokinetic parameters were estimated using WinNonlin (Pharsight, Cetara).

[3] = test system: systemic lupus erythematosus (SLE) in MRL/MpJFASlpr mice; experiment: MRL/MpJFASlpr mouse model of systemic lupus erythematosus; conditions: for Histopathology Glomerulus Diameter / Histopathology Summed Score / Kidney (paired) Weight (g) / Change in Body Weight (g) wk 1-12 / Histopathology Interstitial Inflammation: mean (SE); for absolute kidney weights, reduction vs Vehicle Disease Controls / absolute mesenteric lymph node weights, reduction vs Vehicle Disease Controls: term animals
Protocol: A study designed to determine the effects of candidate anti-inflammatory agent Formula (II) in oral (PO), daily (QD) administration in the treatment of systemic lupus erythematosus (SLE) in MRL/MpJFASlpr mice. Formula (II) was preformulated in vehicle (0.4% HPMC, 0.1% Tween 80, with simethicone for antifoaming). The female MRL/MpJFASlpr mice were dosed with vehicle or Formula (II) (1, 5, or 25 mg/kg) daily (QD) by the oral (PO) route dosing, or they were dosed QD by the intraperitoneal (IP) route with the reference compound cyclophosphamide (15 mg/kg). Prior to dosing, the candidate anti-inflammatory agent was reconstituted either by vortexing or stirring. […]
Female MRL/MpJFASlpr mice (n=50) that were 8-9 weeks old and weighed approximately 28-41 grams (mean 34 g) at enrollment (mouse age approx. 12 weeks) were obtained from The Jackson Laboratory, Bar Harbor, Me. (stock number 000485). These mice were housed 3-5/cage in shoe-box polycarbonate cages with wire tops, wood chip bedding, and suspended food and water bottles. No concurrent medications were given.
When they were 12 weeks old (study day 0), the female MRL/MpJFASlpr mice (n=10/group) were randomized by body weight into 5 groups as shown above. Treatment was initiated after randomization and continued for […] (mouse age 12 weeks to 23 weeks).
Starting on study week one, and then every week thereafter urine from each animal was tested for proteinuria using the Clinitech Multistick test strip (Bayer). The animals were also observed daily for significant clinical signs, moribundity and mortality. […] Efficacy evaluation was based on animal body weights, proteinuria analysis, lymphadenopathy scores, skin lesion scores, organ weights, anti-dsDNA titers, clinical chemistry parameters, and histopathologic evaluation of the kidneys.
Any animals showing signs of morbundity were terminated immediately. At necropsy (3 h post-dose, mouse age 23 weeks), all remaining animals were anesthetized with Isoflurane and bled via cardiac puncture for serum and plasma (Li Heparin). The animals were bled to exsanguinate then euthanized by cervical dislocation. Spleens, kidneys (paired), and lymph nodes were collected and weighed. Kidneys were collected into 10% neutral buffered formalin (NBF). Spleens were placed in RPMI 1% FBS media for splenocyte isolation. Serum samples for potential clinical chemistry analysis were stored frozen at −80° C. until shipment to Antech Diagnostics. Plasma samples were stored frozen at −80° C. for mouse antidsDNA IgG analysis by ELISA.
Blood samples were drawn via cardiac puncture from Isoflurane anesthetized animals into serum separator microtainer tubes for clinical chemistries. Samples were shipped to Antech Diagnostics for analysis.

[4] = 1 mg/kg PO QD, term animals only
[5] = 5 mg/kg PO QD, term animals only
[6] = 25 mg/kg PO QD, term animals only

CC#CC(=O)N1CCC[C@H]1c1nc(-c2ccc(C(=O)Nc3ccccn3)cc2)c2c(N)nccn12 [Formula (II), (S)-4-(8-amino-3-(1-(but-2-ynoyl)pyrrolidin-2-yl)imidazo[1,5-a]pyrazin-1-yl)-N-(pyridin-2-yl)benzamide]
Tmax [1]: ~1 h | Cmax as fraction of the AUC0-18 value ([2]; dietary 100 and 500 ppm in chow, Day 14): 1/10 | Cmax ([2]; rat, plasma, oral gavage 30 mg/kg/day, Day 14, male rats): 506 ng/mL | AUC(0-t) ([2]; rat, plasma, oral gavage 30 mg/kg/day, Day 14, male rats, read-out: AUC0-12): 864 ng·h/mL | Percent Survival ([3]; 1 mg/kg PO QD): 100% | Histopathology Glomerulus Diameter ([3]; 1 mg/kg PO QD, All Animals): *87.78 (3.82) | Histopathology Summed Score ([3]; 1 mg/kg PO QD, All Animals): 7.70 (1.07) | Kidney (paired) Weight (g) ([3]; 1 mg/kg PO QD, All Animals): 0.576 (0.03) g | Change in Body Weight (g) wk 1-12 ([3]; 1 mg/kg PO QD, Term Animals): 8.10 (0.66) g | Histopathology Glomerulus Diameter ([3]; 1 mg/kg PO QD, Term Animals): 87.78 (3.82) | Histopathology Summed Score ([3]; 1 mg/kg PO QD, Term Animals): 7.70 (1.07) | Kidney (paired) Weight (g) ([3]; 1 mg/kg PO QD, Term Animals): 0.576 (0.03) g | glomerulus diameter, reduction vs Vehicle Disease Controls ([3]; 1 mg/kg PO QD, all animals): 43% | percent of glomeruli with crescents, reduction ([3]; 1 mg/kg PO QD, all animals): 97% | serum clinical chemistries vs Vehicle Disease Controls ([3]; 1 mg/kg PO QD, all animals): significantly increased albumin (ALB), glucose (GLU), and sodium/potassium ratio (Na/K) and significantly reduced blood urea nitrogen (BUN), BUN/creatinine, phosphorus (P), potassium (K), cholesterol (CHOL), and amylase (AMY) | percent of glomeruli with crescents, reduction [3, 4]: 90% | serum clinical chemistries vs Vehicle Disease Controls [3, 4]: significantly reduced BUN and BUN/creatinine | Percent Survival ([3]; 5 mg/kg PO QD): 90% | mice that died or were sacrificed moribund prior to study termination ([3]; 5 mg/kg PO QD): 1 of 10 | Histopathology Glomerulus Diameter ([3]; 5 mg/kg PO QD, All Animals): *80.53 (5.64) | Histopathology Interstitial Inflammation ([3]; 5 mg/kg PO QD, All Animals): 1.98 (0.29) | Histopathology Summed Score ([3]; 5 mg/kg PO QD, All Animals): *5.60 (0.98) | Kidney (paired) Weight (g) ([3]; 5 mg/kg PO QD, All Animals): 0.544 (0.02) g | Change in Body Weight (g) wk 1-12 ([3]; 5 mg/kg PO QD, Term Animals): 7.01 (0.67) g | Histopathology Glomerulus Diameter ([3]; 5 mg/kg PO QD, Term Animals): *80.17 (6.29) | Histopathology Interstitial Inflammation ([3]; 5 mg/kg PO QD, Term Animals): 1.97 (0.33) | Histopathology Summed Score ([3]; 5 mg/kg PO QD, Term Animals): *5.50 (1.08) | Kidney (paired) Weight (g) ([3]; 5 mg/kg PO QD, Term Animals): *0.531 (0.02) g | glomerulus diameter, reduction ([3]; 5 mg/kg PO QD, all animals): 60% | glomerulus score, reduction ([3]; 5 mg/kg PO QD, all animals): 58% | percent of glomeruli with crescents, reduction ([3]; 5 mg/kg PO QD, all animals): 99% | protein cast score, reduction ([3]; 5 mg/kg PO QD, all animals): 92% | serum clinical chemistries vs Vehicle Disease Controls ([3]; 5 mg/kg PO QD, all animals): significantly increased ALB, GLU, calcium (CA), and Na/K and significantly reduced BUN, BUN/creatinine, K, CHOL, and AMY | summed histopathology scores, reduction ([3]; 5 mg/kg PO QD, all animals): 63% | vasculitis, reduction ([3]; 5 mg/kg PO QD, all animals): 52% | absolute kidney weights, reduction vs Vehicle Disease Controls ([3]; 5 mg/kg PO QD): 16% | absolute mesenteric lymph node weights, reduction vs Vehicle Disease Controls ([3]; 5 mg/kg PO QD): 52% | glomerulus diameter, reduction [3, 5]: 46% | percent of glomeruli with crescents, reduction [3, 5]: 98% | protein cast score, reduction [3, 5]: 90% | serum clinical chemistries vs Vehicle Disease Controls [3, 5]: significantly increased ALB, albumin/globulin ratio (A/G), GLU and Na/K and significantly reduced BUN, BUN/creatinine, and K | summed histopathology scores, reduction [3, 5]: 54% | Percent Survival ([3]; 25 mg/kg PO QD): 100% | Histopathology Glomerulus Diameter ([3]; 25 mg/kg PO QD, All Animals): *74.78 (1.62) | Histopathology Interstitial Inflammation ([3]; 25 mg/kg PO QD, All Animals): *1.53 (0.15) | Histopathology Summed Score ([3]; 25 mg/kg PO QD, All Animals): *3.88 (0.34) | Kidney (paired) Weight (g) ([3]; 25 mg/kg PO QD, All Animals): 0.511 (0.01) g | Change in Body Weight (g) wk 1-12 ([3]; 25 mg/kg PO QD, Term Animals): 6.90 (0.56) g | Histopathology Glomerulus Diameter ([3]; 25 mg/kg PO QD, Term Animals): *74.78 (1.62) | Histopathology Interstitial Inflammation ([3]; 25 mg/kg PO QD, Term Animals): *1.53 (0.15) | Histopathology Summed Score ([3]; 25 mg/kg PO QD, Term Animals): *3.88 (0.34) | Kidney (paired) Weight (g) ([3]; 25 mg/kg PO QD, Term Animals): *0.511 (0.01) g | glomerulus crescent score, reduction ([3]; 25 mg/kg PO QD, all animals): 100% | glomerulus diameter, reduction ([3]; 25 mg/kg PO QD, all animals): 73% | glomerulus score, reduction ([3]; 25 mg/kg PO QD, all animals): 76% | interstitial inflammation, reduction ([3]; 25 mg/kg PO QD, all animals): 59% | percent of glomeruli with crescents, reduction ([3]; 25 mg/kg PO QD, all animals): 100% | protein cast score, reduction ([3]; 25 mg/kg PO QD, all animals): 98% | serum clinical chemistries vs Vehicle Disease Controls ([3]; 25 mg/kg PO QD, all animals): significantly increased ALB, GLU, calcium (CA), and Na/K and significantly reduced BUN, BUN/creatinine, K, CHOL, and AMY | summed histopathology scores, reduction ([3]; 25 mg/kg PO QD, all animals): 75% | vasculitis, reduction ([3]; 25 mg/kg PO QD, all animals): 52% | urine protein scores vs Vehicle Disease Controls ([3]; 25 mg/kg PO QD, all animals, mouse age 14-15 and 21-22): significantly reduced | absolute kidney weights, reduction vs Vehicle Disease Controls ([3]; 25 mg/kg PO QD): 19% | absolute mesenteric lymph node weights, reduction vs Vehicle Disease Controls ([3]; 25 mg/kg PO QD): 49% | glomerulus crescent score, reduction [3, 6]: 100% | glomerulus diameters, reduction [3, 6]: 63% | glomerulus score, reduction [3, 6]: 72% | interstitial inflammation, reduction [3, 6]: 51% | percent of glomeruli with crescents, reduction [3, 6]: 100% | protein cast score, reduction [3, 6]: 97% | serum clinical chemistries vs Vehicle Disease Controls [3, 6]: significantly increased ALB and CA and significantly reduced BUN and BUN/creatinine | summed histopathology scores, reduction [3, 6]: 68% | vasculitis, reduction [3, 6]: 47% | urine protein scores vs Vehicle Disease Controls ([3]; 25 mg/kg PO QD, term animals only, mouse age 22): significantly reduced | anti-dsDNA IgG levels vs Vehicle Disease Controls ([3]; 1, 5 or 25 mg/kg PO QD): not significantly affected | body weight change vs Vehicle Disease Controls ([3]; 1, 5 or 25 mg/kg PO QD): did not differ significantly | cumulative lymph node weights vs Vehicle Disease Controls ([3]; 1, 5 or 25 mg/kg PO QD): did not differ significantly | lymphadenopathy scores vs Vehicle Disease Controls ([3]; 1, 5 or 25 mg/kg PO QD): not significantly affected | skin lesion scores vs Vehicle Disease Controls ([3]; 1, 5 or 25 mg/kg PO QD): not significantly affected | spleen weights vs Vehicle Disease Controls ([3]; 1, 5 or 25 mg/kg PO QD): did not differ significantly
